Where two headings read alike, the source gives them in different places.
What was measured:
PDIA3 = biological target: T1, PDIA3 (Homo sapiens, UniProt P30101); test: Fluorescence quenching titration of PDIA3 intrinsic fluorescence; format: binding; settings: for Stern-Volmer constant (K SV): 0.5∗10^−6 M PDIA3 in reduced conditions, pH 7.4, 25°C, flavonoid 0 to 10∗10^−6 M, mean and standard deviation; for bimolecular quenching rate constant (K q): K SV = K q τ0 with τ0 of the order of 10^−8 s; for binding constant (K b): equation of Bi et al., reiterative calculation of Sun et al.
T1 construct: made in house; host or cells: E. coli BL21 (vector pET21)
T1 sequence (P30101 25-505): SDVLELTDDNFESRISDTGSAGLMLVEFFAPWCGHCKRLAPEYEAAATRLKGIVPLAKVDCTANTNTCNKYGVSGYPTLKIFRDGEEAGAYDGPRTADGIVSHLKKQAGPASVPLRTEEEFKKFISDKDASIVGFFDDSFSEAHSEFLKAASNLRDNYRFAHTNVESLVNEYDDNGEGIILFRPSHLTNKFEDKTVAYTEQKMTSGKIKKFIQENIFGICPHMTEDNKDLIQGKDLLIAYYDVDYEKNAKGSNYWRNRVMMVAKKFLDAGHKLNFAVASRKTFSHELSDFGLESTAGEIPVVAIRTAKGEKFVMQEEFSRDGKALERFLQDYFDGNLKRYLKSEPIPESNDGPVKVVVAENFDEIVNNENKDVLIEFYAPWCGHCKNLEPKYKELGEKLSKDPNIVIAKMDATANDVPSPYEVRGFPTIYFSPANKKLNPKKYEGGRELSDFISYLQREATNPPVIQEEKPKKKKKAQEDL
Procedure: Quantitative analysis of the interaction between individual flavonoids and PDIA3 was performed by fluorimetric titration. […] Briefly, solution of PDIA3 (0.5 μM) or a and a′ domains (1 μM) in phosphate buffered saline (PBS) containing DTT 0.1 mM and EDTA 0.2 mM were titrated in quartz cuvette by stepwise additions, at 5 min time intervals, of individual flavonoid solution (1 mM in PBS/ethanol 50 : 50 v/v freshly prepared from a 20 mM stock solution in DMSO). […] To minimize the inner-filter effect we limited the highest concentration reached in the titration test up to 10 μM. All experiments were carried out at 25°C. Each spectrum was the mean of three repeated scans. Fluorescence spectra of appropriate blanks (flavonoids without proteins) were recorded under the same experimental conditions and subtracted from the corresponding flavonoid-protein system to correct the fluorescence background.
Quenching analysis was performed on PDIA3 (0.5 μM), in the reduced form, by adding stepwise increasing concentration of each molecule and recording the protein fluorescence spectra. For some flavonoids the analysis was extended to isolate a′ domain (1 μM), always in the reduced form. […] For each ligand molecule the Stern-Volmer quenching constant was obtained by linear regression of plots of F 0/F versus [L].
The Stern-Volmer quenching constant may be expressed as K SV = K q τ 0, where K q is the quencher rate coefficient and τ 0 is the average lifetime of the emissive excited state of the protein in the absence of the quencher.
The number of binding sites (n) and the binding constant (K b) were obtained by plotting log((F 0 − F)/F) versus log(1/([L t] − n(F 0 − F)[P t]/F 0)) using the reiterative calculation process described by Sun et al., assuming a similar affinity for each binding site.

[1] = biological target: T2, PDIA3 a′ domain (residues 377–505) (Homo sapiens, UniProt P30101); test: Fluorescence quenching titration of isolated a′ domain; format: binding; settings: a′ domain 1 μM, reduced form; data not shown
T2 construct: second redox-active domain (a′ domain, residues 377–505); made in house; host or cells: E. coli BL21 (vector pET29)
T2 sequence (P30101 377-505): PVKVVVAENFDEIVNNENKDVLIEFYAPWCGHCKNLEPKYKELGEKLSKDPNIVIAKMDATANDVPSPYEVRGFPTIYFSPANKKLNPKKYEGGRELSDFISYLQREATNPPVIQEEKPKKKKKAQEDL
From the text: Human recombinant PDIA3 was cloned and expressed in E. coli strain BL21 using the expression vector pET21 (Novagen) as previously described. The coding sequence for the second redox-active domain (a′ domain, residues 377–505) was amplified by PCR as previously described and cloned in the expression vector pET29 (Novagen). Recombinant proteins were expressed in E. coli strain BL21 and purified by ammonium sulphate fractionation, ion exchange, and heparin chromatography. Protein purification was evaluated by SDS-PAGE and concentration was determined spectrophotometrically (PDIA3 ℇ 280 reduced form = 44,810 M^−1 cm^−1; a′ domain ℇ 280 reduced form = 14,400 M^−1 cm^−1).
Quantitative analysis of the interaction between individual flavonoids and PDIA3 was performed by fluorimetric titration. Fluorescence spectra were recorded using a SPEX-FluoroMax spectrofluorimeter (Horiba Scientific) from 300 to 500 nm with excitation at 290 nm using a 10 mm path length quartz fluorescence cuvette and under continuous stirring. The excitation and emission slits were both set to 5 nm and scan speed was 120 nm·min^−1. […] Fluorescence spectra of appropriate blanks (flavonoids without proteins) were recorded under the same experimental conditions and subtracted from the corresponding flavonoid-protein system to correct the fluorescence background. Fluorescence intensities recorded at 338 nm were used for quenching analysis and data obtained for each flavonoid are the average of at least three independent titration experiments.
Quenching analysis was performed on PDIA3 (0.5 μM), in the reduced form, by adding stepwise increasing concentration of each molecule and recording the protein fluorescence spectra. […] Quenching effect on protein and Stern-Volmer quenching constant (K SV) were calculated from the fluorescence intensities at 338 nm of protein alone (F 0) and in the presence of increasing concentration of each ligand molecule (F) using the Stern-Volmer equation [40]: (1) F0/F=1+KSVL, where L is the ligand concentration. […]

[2] = K d = 1/K b, reduced PDIA3, pH 7.4, 25°C, read-out: dissociation constant (K d)

Row | SMILES | Stern-Volmer constant (K SV) (PDIA3) | bimolecular quenching rate constant (K q) (PDIA3; reduced PDIA3, pH 7.4, 25°C) | Kd (PDIA3; [2]) | binding constant (K b) (PDIA3; reduced PDIA3, pH 7.4, 25°C) | Affinity for isolated a′ domain [1] | Kd (PDIA3; Figure 8, no unit printed in the picture, read-out: Dissociation constant (Kd))
1 | COc1ccc(-c2cc(=O)c3c(OC)c(OC)c(OC)cc3o2)cc1O [Eupatorin-5-methyl ether, eupatorin-5-methyl-ether] | 90016 ± 1875 M⁻¹ | 9e+12 M⁻¹ s⁻¹ | 11.1 µM | 90400 M⁻¹ | greatest affinity | 
2 | COc1ccc(-c2cc(=O)c3c(O)c(OC)c(OC)cc3o2)cc1O [Eupatorin, eupatorin] | 89362 ± 688 M⁻¹ | 8.94e+12 M⁻¹ s⁻¹ | 10.3 µM | 96700 M⁻¹ | greatest affinity | 10.3 µM
3 | O=c1cc(-c2ccc(O)cc2)oc2cc(O)cc(O)c12 [Apigenin, apigenin] | 54332 ± 1185 M⁻¹ | 5.43e+12 M⁻¹ s⁻¹ | 17 µM | 58700 M⁻¹ | greatest affinity | 
